Experimental data reported in PMC6893557, “Discovery of Non-peptide Small Molecule Allosteric Modulators of the Src-family Kinase, Hck” (Frontiers in Chemistry, 2019).
Values joined by “and” are separate entries in the source; they are usually repeats but may differ in a detail not shown here. Equal values may be shown once.

Columns and labels:
[1] = target: T1, Hck U32L protein (Homo sapiens, UniProt P08631); assay: Fluorescence polarization (FP) assay: displacement of VSL12 probe peptide from Hck-U32L; format: binding; details: IC50, inhibition of VSL12 peptide FP signal, Hck-U32L plus fluorescent VSL12 probe; two independent determinations ± S.E., each data point in triplicate
T1 construct: including the N-terminal unique region, followed by the SH3 and SH2 domains, and the SH2-kinase linker; made in house; host or cells: E. coli
T1 sequence (P08631 22-256): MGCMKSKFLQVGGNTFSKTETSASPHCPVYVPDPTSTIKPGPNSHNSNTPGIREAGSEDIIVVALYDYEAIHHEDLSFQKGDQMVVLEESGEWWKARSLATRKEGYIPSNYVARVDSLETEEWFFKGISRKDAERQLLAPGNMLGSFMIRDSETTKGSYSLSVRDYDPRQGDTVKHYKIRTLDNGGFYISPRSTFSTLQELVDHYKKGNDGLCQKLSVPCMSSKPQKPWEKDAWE
Description: For the FP assay, the peptide was labeled with 6-carboxyfluorescein at its N-terminus. […] Molecular weight and purity of all peptides were verified by mass spectrometry. Stock solutions (10 mM) were prepared in a 1:1 mixture of DMSO and FP assay buffer (20 mM Tris-HCl, pH 8.3) for the labeled peptide and FP assay buffer for the unlabeled peptide. Stock solutions were stored at −20°C.
FP assays were performed in low-volume black 384-well plates with a non-binding surface (Corning #3676). Peptides and proteins were added to each well in FP assay buffer for a final assay volume of 20 μL and mixed by shaking for 5 min at room temperature. […] Raw fluorescence intensity was also read at the same wavelengths for each assay.
Screening libraries were purchased from ChemDiv (10,000 non-peptide peptidomimetic library) and ChemBridge (50,000 compound diversity library). Each library compound was screened at 50 μM and a final DMSO concentration of 1%. […] Each plate contained 32 wells of the Hck U32L protein plus probe peptide and DMSO as positive controls, and 32 wells of mutant Hck U32L-W118A protein plus probe peptide and DMSO as negative controls. Results for each compound test well were ranked by z score analysis according to the formula: z = (sample FP—mean FPsamples)/standard deviationsamples (Shun et al., [2011]). Potential hit compounds, defined as those that inhibited the FP signal by at least 30% and/or with z scores < −3.0, were then retested in quadruplicate using the FP assay under screening assay conditions.
The target protein for HTS consisted of the entire regulatory region of the p59 form of human Hck, including the N-terminal unique region, followed by the SH3 and SH2 domains, and the SH2-kinase linker (referred to hereafter as the Hck “U32L” protein). […] The principle of the assay is illustrated in Figure 2A. Binding of the probe peptide to the SH3 domain in the target protein slows its rotation, resulting in an increase in the FP signal. Library compounds that interfere with probe binding or stabilize SH3-linker interaction reduce the FP signal, and score as hits.

[2] = target: T2, Hck-YEEI (Homo sapiens, UniProt P08631, Q523E/Q524E/Q525I); assay: SPR binding, near-full-length Hck; details: kinetic KD, 1:1 Langmuir model, ± S.E., NI = no interaction, read-out: KD, Hck proteins Hck-YEEI
T2 construct: a near-full-length form of Hck consisting of the SH3, SH2 and kinase domains plus the tyrosine-phosphorylated tail; made in house; host or cells: Sf9 insect cells
T2 sequence (P08631 78-526 Q523E/Q524E/Q525I limits assumed): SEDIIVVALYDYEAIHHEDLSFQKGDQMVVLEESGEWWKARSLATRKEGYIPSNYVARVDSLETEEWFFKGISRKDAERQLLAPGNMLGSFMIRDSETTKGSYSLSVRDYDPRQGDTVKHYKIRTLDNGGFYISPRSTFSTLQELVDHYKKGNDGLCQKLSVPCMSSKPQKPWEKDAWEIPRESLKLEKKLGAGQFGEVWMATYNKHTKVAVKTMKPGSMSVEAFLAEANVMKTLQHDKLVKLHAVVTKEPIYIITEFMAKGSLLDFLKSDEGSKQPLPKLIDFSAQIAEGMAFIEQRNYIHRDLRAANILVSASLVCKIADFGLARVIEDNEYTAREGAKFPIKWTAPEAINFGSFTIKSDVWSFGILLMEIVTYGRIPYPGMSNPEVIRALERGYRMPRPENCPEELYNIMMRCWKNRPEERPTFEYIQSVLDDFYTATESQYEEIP
Description: (§1) SPR analysis was performed on a Reichert 4SPR instrument (Reichert Technologies) using four-channel carboxymethyl dextran hydrogel biosensor chips (Reichert #13206066). Recombinant purified Hck proteins were covalently attached to the chip surface via standard amine coupling chemistry (Grover et al., [2015]). Compounds were prepared in 20 mM Tris-HCl, pH 8.3, 150 mM NaCl, and 1% DMSO and flowed past the immobilized proteins and a reference channel at a flow rate of 50 μL/min for 60 s over a range of concentrations. The binding reaction was followed by dissociation for 120 s, followed by surface regeneration using 10 mM HEPES, pH 7.5, containing 150 mM NaCl, 3 mM EDTA, and 0.05% polysorbate 20, at a flow rate of 50 μL/min for 30 s. All sensorgrams were recorded in triplicate, corrected for buffer effects, and fitted with the 1:1 Langmuir binding model using the TraceDrawer software (Reichert).
(§2) Interaction was monitored to equilibrium, followed by a dissociation phase. The resulting sensorgrams were best-fit to determine the kinetic rate constants and corresponding KD values, where KD = koff/kon. As positive controls, we also monitored the interaction of peptide ligands for the SH3 and SH2 domains.

[3] = target: T3, Fgr U-SH32-L (Homo sapiens, UniProt P09769); assay: SPR binding, Fgr unique-SH3-SH2-linker protein; details: kinetic KD, 1:1 Langmuir model, ± S.E., NI = no interaction; for Kd: read-out: KD, Fgr proteins U-SH32-L
T3 construct: the complete regulatory region, consisting of the unique, SH3, and SH2 domains plus the SH2-kinase linker (U32L protein); made in house; host or cells: E. coli
T3 sequence (P09769 1-257 limits assumed): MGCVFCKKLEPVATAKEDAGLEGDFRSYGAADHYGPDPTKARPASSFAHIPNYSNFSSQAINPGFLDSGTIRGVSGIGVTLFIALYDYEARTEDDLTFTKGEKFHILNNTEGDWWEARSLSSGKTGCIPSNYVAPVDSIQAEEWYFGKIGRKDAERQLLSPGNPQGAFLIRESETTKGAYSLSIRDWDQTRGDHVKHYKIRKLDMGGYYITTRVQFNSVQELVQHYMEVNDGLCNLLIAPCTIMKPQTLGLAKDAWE
Description: as §1

[4] = target: T4, Hck U-SH32-L (Hck-U32L) (Homo sapiens, UniProt P08631); assay: SPR binding, Hck unique-SH3-SH2-linker protein; details: kinetic KD, 1:1 Langmuir model, ± S.E., NI = no interaction, read-out: KD, Hck proteins U-SH32-L
T4 construct: including the N-terminal unique region, followed by the SH3 and SH2 domains, and the SH2-kinase linker; made in house; host or cells: E. coli
T4 sequence (P08631 22-256): as the sequence (P08631 22-256) above
Description: as §1, §2

[5] = target: T5, Fgr-YEEI (Homo sapiens, UniProt P09769, G526I/P525E/Q524E); assay: SPR binding, near-full-length Fgr; details: kinetic KD, 1:1 Langmuir model, ± S.E., NI = no interaction; for Kd: read-out: KD, Fgr proteins Fgr-YEEI
T5 construct: near-full-length Fgr, lacking only the unique domain and encoding the same modified C-terminal tail as near-full-length Hck (Fgr-YEEI); made in house; host or cells: Sf9 insect cells
T5 sequence (P09769 77-526 Q524E/P525E/G526I): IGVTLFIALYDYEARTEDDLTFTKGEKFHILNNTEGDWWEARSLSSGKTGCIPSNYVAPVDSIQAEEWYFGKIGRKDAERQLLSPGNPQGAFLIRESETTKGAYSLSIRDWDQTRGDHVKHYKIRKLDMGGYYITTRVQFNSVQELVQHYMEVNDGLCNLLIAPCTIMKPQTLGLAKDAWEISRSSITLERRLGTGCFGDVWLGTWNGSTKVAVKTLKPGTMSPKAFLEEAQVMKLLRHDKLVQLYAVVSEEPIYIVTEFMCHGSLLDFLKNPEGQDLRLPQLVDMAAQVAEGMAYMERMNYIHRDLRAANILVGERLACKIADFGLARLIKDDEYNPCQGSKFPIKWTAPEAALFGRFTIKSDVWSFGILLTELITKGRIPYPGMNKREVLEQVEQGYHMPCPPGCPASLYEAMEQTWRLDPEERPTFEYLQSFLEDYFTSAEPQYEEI
Description: as §1

[6] = target: T6, Fgr SH32 (Homo sapiens, UniProt P09769); assay: SPR binding, Fgr dual SH3-SH2 domain protein; details: kinetic KD, 1:1 Langmuir model, ± S.E., NI = no interaction; for Kd: read-out: KD, Fgr proteins SH32
T6 construct: including a dual SH3-SH2 domain protein; made in house; host or cells: E. coli
T6 sequence (P09769 77-241 limits assumed): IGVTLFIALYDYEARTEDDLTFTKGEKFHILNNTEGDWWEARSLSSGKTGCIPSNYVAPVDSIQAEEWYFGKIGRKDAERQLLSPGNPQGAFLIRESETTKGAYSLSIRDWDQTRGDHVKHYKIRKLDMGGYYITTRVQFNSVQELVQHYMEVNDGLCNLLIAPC
Description: as §1

[7] = target: T7, Hck SH32-L (Homo sapiens, UniProt P08631); assay: SPR binding, Hck SH3-SH2-linker protein; details: for Kd: kinetic KD, 1:1 Langmuir model, ± S.E., NI = no interaction, read-out: KD, Hck proteins SH32-L
T7 construct: an SH3-SH2-linker protein lacking the N-terminal unique domain; made in house; host or cells: E. coli
T7 sequence (P08631 72-256 limits assumed): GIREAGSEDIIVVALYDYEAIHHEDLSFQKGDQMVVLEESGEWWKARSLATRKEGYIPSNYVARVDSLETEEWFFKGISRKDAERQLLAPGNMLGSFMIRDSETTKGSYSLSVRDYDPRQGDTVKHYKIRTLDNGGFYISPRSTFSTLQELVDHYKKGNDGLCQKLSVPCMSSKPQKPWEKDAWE
Description: as §1, §2

Row | IC50 [1] | Kd [2] [µM] | Kd [3] [µM] | Kd [4] [µM] | Kd [5] [µM] | Kd [6] [µM] | Kd [7] [µM] | Fold increase of KD with SH3-SH2-linker protein lacking the unique domain vs Hck-U32L [7] | Reduction of extent of binding with SH3-SH2-linker protein lacking the unique domain vs Hck-U32L [7] | SMILES | KD, Fgr proteins U-SH32-L [3] | KD, Fgr proteins Fgr-YEEI [5] | KD, Fgr proteins SH32 [6]
1 | 52.9 µM and 53.2 µM | 103 ± 4 | 131 ± 6 | 36 ± 4 | 141 ± 4 | 104 ± 3 | 83 ± 19 |  |  | CC(C)Nc1ccnc(NCc2cccnc2Oc2ccc(F)cc2F)n1 [Compound 1] |  |  | 
2 | 11.3 µM and 16.7 µM | 93 ± 1 | 70 ± 5 | 30 | 107 ± 1 | 352 ± 1 | 96 ± 2 | about 3 fold | about 50% | Cc1cnc(NCc2ccccc2-n2ccnc2)nc1N(C)C [Compound 2] |  |  | 
3 | 36.1 µM and 59.6 µM | 180 ± 1 | 102 ± 4 | 831 | 64 ± 2 | 69 ± 1 | 338 ± 4 |  |  | Cc1cnc(NCc2ccccc2CN2CCCC2=O)nc1N(C)C [Compound 4] |  |  | 

Row | SMILES | IC50 [1] | Kd [2] [µM] | Kd [3] [µM] | Kd [4] [µM] | Kd [5] [µM] | Kd [6] [µM] | Kd [7] [µM] | Fold increase of KD with SH3-SH2-linker protein lacking the unique domain vs Hck-U32L [7] | Reduction of extent of binding with SH3-SH2-linker protein lacking the unique domain vs Hck-U32L [7] | KD, Fgr proteins U-SH32-L [3] | KD, Fgr proteins Fgr-YEEI [5] | KD, Fgr proteins SH32 [6]
4 | CNc1ccnc(NCCC23CCCN2CCC3)n1 [Compound 3] | 36.3 µM and 31 µM | 142 ± 1 |  | 55 ± 5 |  |  | 905 ± 18 |  |  | did not bind | did not bind | did not bind
